The values below come from US8148493B2, “Method for inhibiting “melanoma inhibitory activity” MIA” (Antisense Pharma GmbH, priority 2002, dated 2012).

The target in one test is T1, MIA (Homo sapiens, UniProt Q16674).
T1 sequence (Q16674 25-131): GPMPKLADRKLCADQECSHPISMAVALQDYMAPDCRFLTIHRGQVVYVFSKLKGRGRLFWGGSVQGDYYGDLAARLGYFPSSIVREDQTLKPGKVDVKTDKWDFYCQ
As to the kind of experiment: Boyden Chamber assay, melanoma cell invasion with and without MIA. The test is classed as cell-based. The source says: Both in vitro and in vivo MIA expression levels strictly correlate with an highly invasive phenotype (Bosserhoff et al., 1996, J. Biol. Chem. 271, 490-495; Bosserhoff et al., 1999, J. of Pathology 187, 446-454). Further in vivo studies have shown the necessity of MIA for melanoma invasion and metastasis (Bosserhoff et al., 2001, Melanoma Res. 11, 417-421., Guba, et al., 2000, Br. J. Cancer 83, 1216-1222). We therefore aimed to design MIA-inhibitory peptides based on our experiments which identified fibronectin epitopes interacting with MIA (Stoll et al., 2001; EMBO J. 20: 340-349). Peptides derived from fibronectin which were shown previously to cross-react with MIA were tested in Boyden Chamber assays on their effect on melanoma cell invasion with and without MIA. […] In addition we tested several of the peptide sequences derived from phage display screenings and found peptide SEQ ID NO:16 to be a potential interesting candidate for therapeutic MIA-inhibition. […] We then tested the effect of peptides SEQ ID NO:16 and 22 on growth of metastasis in vivo using the B16/C57B16 model.

In a further test the test system is melanoma cells. Put plainly: Melanoma (tumor) cell attachment. The test is classed as cell-based.
The next test concerns B16 melanoma cells. Put plainly: In vivo experimental metastasis assay, B16/C57Bl6 model. The following applies: C57Bl6 mice, B16 cells i.v., peptide 550 μg/mouse every day, 18 days; for size of the lung tumor nodules: control 119.9±9.95; for number of black lung nodules of melanoma: control 193±13. The procedure: To measure the effect of SEQ ID NO: 16 and SEQ ID NO:22 on the metastatic potential of B16 melanoma cells in vivo an experimental metastasis assay was used (Bosserhoff et al., 2001, Melanoma Res. 11, 417-421). Intravenous injections of monodispersed tumor cells (1×10^5 cells per animal) were performed into syngeneic C57BI6 mice (n=12 for every peptide as well as control). Peptides (550 μg/mouse) or PBS was injected every day. After 18 days the mice were sacrificed, the lungs removed, washed in PBS, fixed in formalin and the visible tumor nodules on the surface of the lungs were counted and the tumor areas measured.

Consider “RLTLLVLIMPAP (from phage display screening) [SEQ ID NO:16, do-decapeptide from phage display]”, for which the “effect on MIA function (melanoma cell invasion)” value (“effect on MIA function” below) with MIA is “strongly inhibited”. For the same sequence, in the test with melanoma cells, the “effect on melanoma/tumor cell attachment” value is on record as “no effect”. In the test with B16 melanoma cells, the “size of the lung tumor nodules” value is 78.1±5.03 and the “number of black lung nodules of melanoma” value was found to be 198±19.

Take “NSLLVSWQPPRAR (from phage display screening) [SEQ ID NO:24, fibronectin-derived peptide]”: the “effect on MIA function” value with MIA was “block MIA function”. In the test on melanoma cells, the “effect on melanoma/tumor cell attachment” value is given as “inhibit also tumor cell attachment”.

With “TSLLISWDAPAVT (from phage display screening) [SEQ ID NO:23, fibronectin-derived peptide]”, the “effect on MIA function” value with MIA is reported as “block MIA function”. In the test with melanoma cells, the “effect on melanoma/tumor cell attachment” value was “inhibit also tumor cell attachment”.

For the sequence “ETTIVITWTPAPR (from phage display screening) [SEQ ID NO:22, fibronectin-derived peptide]”, the “effect on MIA function” value with MIA is “block MIA function”. In the test on B16 melanoma cells, the “size of the lung tumor nodules” value is on record as 87.15±5.32 and the “number of black lung nodules of melanoma” value worked out at 249±26.
